Assay results published in US10214544B2, “Imidazopyridazine and imidazothiadiazole compounds” (Universite de Montreal, priority 2015, dated 2019).

These compounds were tested against PAR4 (Homo sapiens (Human), UniProt Q96RI0) (assay: FLIPR assay in PAR4-expressing HEK293 cells (PAR4 antagonist activity)). Settings: inhibition of H-Ala-Phe(4-F)-Pro-Gly-Trp-Leu-Val-Lys-Asn-Gly-NH2-induced intracellular calcium mobilization.
PAR4, sequence (Q96RI0 18-385): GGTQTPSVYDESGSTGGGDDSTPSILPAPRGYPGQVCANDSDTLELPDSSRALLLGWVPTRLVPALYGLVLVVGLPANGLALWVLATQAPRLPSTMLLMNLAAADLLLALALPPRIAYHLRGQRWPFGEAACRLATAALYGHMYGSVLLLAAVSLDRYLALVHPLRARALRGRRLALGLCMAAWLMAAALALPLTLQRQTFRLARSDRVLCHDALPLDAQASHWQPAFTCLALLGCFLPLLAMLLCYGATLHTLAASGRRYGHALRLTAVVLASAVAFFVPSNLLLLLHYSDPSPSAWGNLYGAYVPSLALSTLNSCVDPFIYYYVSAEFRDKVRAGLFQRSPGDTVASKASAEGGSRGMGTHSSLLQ
Type: cell-based
Description: The FLIPR assay is an exemplary in vitro assay for measuring the activity of the PAR4 antagonists of the present invention. In this assay, intracellular calcium mobilization is induced in PAR4 expressing cells by a PAR4 agonist and calcium mobilization is monitored. See, e.g., Example A.
HEK293 cells stably expressing PAR4 were generated by a standard method of transfection of human PAR4 (F2R23) cDNA expression vector and selected based on PAR4 protein expression or mRNA expression. […] These cells also express endogenous PAR1 and can elicit calcium signal upon stimulation with PAR1 agonist peptide. Therefore, the same cells were also used to determine selectivity against PAR1 and agonist activity for both receptors. Cells from HEK293 PAR4 Clone 1.2A (BMS Arctic ID 383940) were propagated and used for calcium mobilization studies.
FLIPR-based calcium mobilization assay in HEK293 cells was used to measure PAR4 antagonism, agonism, and selectivity against PAR1. The activity of the PAR4 antagonists of the present invention were tested in PAR4 expressing cells by monitoring H-Ala-Phe(4-F)-[…]NH2-induced intracellular calcium mobilization. Counter screens for agonist activity and PAR1 antagonist activity were also performed. Briefly, PAR1/PAR4-expressing HEK293 cells were grown in DMEM (Life Technology, Grand Island, N.Y.) containing 10% heat-inactivated FBS, 1% Penicillin-Streptomycin, 10 μg/mL blasticidin, and 100 μg/mL Zeocin at 37° C. with 5% CO2. Cells were plated overnight prior to the experiment in a black 384-well Purecoat Amine clear bottom plate (Becton Dickinson Biosciences, San Jose, Calif.) at 10,000 cells/well in 30 μL growth medium and incubated in a humidified chamber at 37° C. with 5% CO2 overnight. Prior to compound addition, the cell medium was replaced with […] of 1× calcium and magnesium-containing Hank's Balanced Saline Solution (HBSS) (with 20 mM HEPES) and 1:1000 diluted fluorescent calcium indicator (Codex Biosolutions, Gaithersburg, Md.). After a 30 minute incubation period at 37° C. and a further 30 minute incubation and equilibration period at room temperature, 20 μL test compound (diluted in 1× HBSS buffer) was added at various concentrations at 0.17% dimethyl sulfoxide (DMSO) final concentration. Changes in fluorescence intensity were measured using a Functional Drug Screening System (FDSS, Hamamatsu, Japan) to determine agonist activities. The cells were then incubated for 30 minutes at room temperature followed by addition of 20 μL of agonist peptide for antagonist activity measurement. […] Compound potency was derived from 11-point concentration-response curves.
The following Table sets out results obtained employing various compounds of the invention tested in the FLIPR assay. As indicated above, the FLIPR assay, an in vitro assay, measures the PAR4 antagonist activity of compounds tested as described in Example A.
For `COc1cc(OCc2cccc(NC(=O)c3cc(F)cc(OC(F)(F)F)c3)c2)c2cc(-c3cn4nc(OC)sc4n3)oc2c1` [Example 76], the EC50 was 2.5 nM. `COc1cc(OCc2cccc(NC(=O)c3cc(F)ccc3F)c2)c2cc(-c3cn4nc(OC)sc4n3)oc2c1` [Example 154] gave an EC50 of 2.2 nM. `COc1cc(OCc2cccc3c2CCN3C(=O)c2cc(OC(F)F)cc(C(F)(F)F)c2)c2cc(-c3cn4nc(OC)sc4n3)oc2c1` [Example 130] gave an EC50 of 5.2 nM. Compound `COc1cc(OCc2cccc3c2CCN3C(=O)c2cc(C)cc(C(F)(F)F)c2)c2cc(-c3cn4nc(OC)sc4n3)oc2c1` [Example 125] has an EC50 of 3.9 nM. Work on `COc1cc(OCc2cccc(NC(=O)c3ccccc3F)c2)c2cc(-c3cn4nc(OC)sc4n3)oc2c1` [Example 26] yielded an EC50 of 0.75 nM. `COc1cc(OCc2cccc(NC(=O)Cc3nc(C)sc3C)c2)c2cc(-c3cn4nc(OC)sc4n3)oc2c1` [Example 49] was tested, and the EC50 was 0.85 nM. `COc1cc(OCc2cccc(NC(=O)c3sc(C)nc3C)c2)c2cc(-c3cn4nc(OC)sc4n3)oc2c1` [Example 50] was tested, and the EC50 was 7.4 nM. `COc1cc(OCc2cccc(NC(=O)c3ccc(F)c(C(F)(F)F)c3)c2)c2cc(-c3cn4nc(OC)sc4n3)oc2c1` [Example 30] gave an EC50 of 1.8 nM. Work on `COc1cc(OCc2cccc(NC(=O)c3cnoc3-c3ccccc3)c2)c2cc(-c3cn4nc(OC)sc4n3)oc2c1` [Example 60] yielded an EC50 of 2.9 nM. For `COc1cc(OCc2ccc3c(c2)N(C(=O)c2cccc(F)c2)CC3)c2cc(-c3cn4nc(OC)sc4n3)oc2c1` [Example 102], the EC50 was 4.1 nM. `COc1cc(OCc2cccc(NC(=O)c3csc(C(F)(F)F)n3)c2)c2cc(-c3cn4nc(OC)sc4n3)oc2c1` [Example 70] gave an EC50 of 1 nM. With `COc1cc(OCc2cccc(NC(=O)c3ccc(F)c(F)c3F)c2)c2cc(-c3cn4nc(OC)sc4n3)oc2c1` [Example 14] the EC50 was 1.4 nM. `COc1cc(OCc2cccc3c2CCN3C(=O)c2ccc(OC)nc2)c2cc(-c3cn4nc(OC)sc4n3)oc2c1` [Example 127] showed an EC50 of 2.9 nM. With `COc1cc(OCc2cccc(NC(=O)c3c(OC)cccc3OC)c2)c2cc(-c3cn4nc(OC)sc4n3)oc2c1` [Example 162] the EC50 was 11 nM. With `COc1cc(OCc2cccc(NS(=O)(=O)c3ccccc3)c2)c2cc(-c3cn4nc(OC)sc4n3)oc2c1` [Example 7, N-(3-(((6-methoxy-2-(2-methoxyimidazo[2,1-b][1,3,4]thiadiazol-6-yl)benzofuran-4-yl)oxy)methyl)phenyl)benzenesulfonamide] the EC50 was 10 nM. In the case of `COc1cc(OCc2cccc(NC(=O)Cc3cc(C)no3)c2)c2cc(-c3cn4nc(OC)sc4n3)oc2c1` [Example 47], the EC50 is reported as 6.9 nM. Work on `COc1cc(OCc2cccc(NC(=O)c3cccc(C(F)(F)F)c3)c2)c2cc(-c3cn4nc(OC)sc4n3)oc2c1` [Example 149] yielded an EC50 of 2 nM. Work on `COc1cc(OCc2cccc(NC(=O)c3cccnc3)c2)c2cc(-c3cn4nc(OC)sc4n3)oc2c1` [Example 148] yielded an EC50 of 6.8 nM. `COc1cc(OCc2cccc(NC(=O)c3ccc(N(C)C)cc3)c2)c2cc(-c3cn4nc(OC)sc4n3)oc2c1` [Example 43] gave an EC50 of 1.6 nM. `COc1cc(OCc2cccc(NC(=O)c3cnc(-c4ccccc4)nc3C)c2)c2cc(-c3cn4nc(OC)sc4n3)oc2c1` [Example 66] gave an EC50 of 5.7 nM. Work on `COc1cc(OCc2cccc(NC(=O)c3ccc(C(F)(F)F)c(F)c3)c2)c2cc(-c3cn4nc(OC)sc4n3)oc2c1` [Example 161] yielded an EC50 of 1.5 nM. With `COc1cc(OCc2cccc(NC(=O)c3cccn3C)c2)c2cc(-c3cn4nc(OC)sc4n3)oc2c1` [Example 132] the EC50 was 3.8 nM. Work on `COc1cc(OCc2cccc(N(C)C(=O)c3ccccc3C)c2)c2cc(-c3cn4nc(OC)sc4n3)oc2c1` [Example 84] yielded an EC50 of 2.5 nM. Compound `COc1cc(OCc2ccc3c(c2)N(C(C)=O)CC3)c2cc(-c3cn4nc(OC)sc4n3)oc2c1` [Example 107] has an EC50 of 26 nM. `COc1cc(OCc2ccc3c(c2)N(C(=O)c2ccc(C)cc2)CC3)c2cc(-c3cn4nc(OC)sc4n3)oc2c1` [Example 105] showed an EC50 of 3.4 nM. `COc1cc(OCc2cccc(NC(=O)c3cc(OCc4ccccc4)cc(C(F)(F)F)c3)c2)c2cc(-c3cn4nc(OC)sc4n3)oc2c1` [Example 62] showed an EC50 of 57 nM. `COc1cc(OCc2cccc(NC(=O)c3ccc(F)cc3)c2)c2cc(-c3cn4nc(OC)sc4n3)oc2c1` [Example 2, 4-Fluoro-N-(3-(((6-methoxy-2-(2-methoxyimidazo[2,1-b][1,3,4]thiadiazol-6-yl)benzofuran-4-yl)oxy)methyl)phenyl)benzamide] showed an EC50 of 1 nM. Compound `COc1cc(OCc2cccc(N(C)C(=O)c3ccccc3F)c2)c2cc(-c3cn4nc(OC)sc4n3)oc2c1` [Example 88] has an EC50 of 3.3 nM. `COc1cc(OCc2cccc(NC(=O)c3ccc(C(F)(F)F)cc3)c2)c2cc(-c3cn4nc(OC)sc4n3)oc2c1` [Example 153] was tested, and the EC50 was 0.99 nM. Compound `COc1cc(OCc2cccc(NC(=O)CC3CCCC3)c2)c2cc(-c3cn4nc(OC)sc4n3)oc2c1` [Example 138] has an EC50 of 2.5 nM. In the case of `COc1cc(OCc2cccc(NC(=O)c3ccccn3)c2)c2cc(-c3cn4nc(OC)sc4n3)oc2c1` [Example 139], the EC50 is reported as 2.7 nM. In the case of `COc1cc(OCc2cccc(NC(=O)c3ccc(OC)nc3)c2)c2cc(-c3cn4nc(OC)sc4n3)oc2c1` [Example 46], the EC50 is reported as 1.1 nM. With `COc1cc(OCc2cccc(NC(=O)c3cc(Cl)cc(OCc4ccccc4)c3)c2)c2cc(-c3cn4nc(OC)sc4n3)oc2c1` [Example 67] the EC50 was 680 nM. `COc1cc(OCc2cccc(NC(=O)c3ccc(F)c(F)c3)c2)c2cc(-c3cn4nc(OC)sc4n3)oc2c1` [Example 166] showed an EC50 of 2.3 nM. Compound `COc1cc(OCc2cccc(NC(=O)c3ccc(C)cc3)c2)c2cc(-c3cn4nc(OC)sc4n3)oc2c1` [Example 32] has an EC50 of 1.6 nM. With `COc1cc(OCc2cccc3c2CCN3C(=O)c2sc(C)nc2C)c2cc(-c3cn4nc(OC)sc4n3)oc2c1` [Example 129] the EC50 was 4.2 nM. `COc1cc(OCc2cccc(NC(=O)NCc3ccccc3)c2)c2cc(-c3cn4nc(OC)sc4n3)oc2c1` [Example 38] showed an EC50 of 4.8 nM. With `COc1cc(OCc2cccc(NC(=O)c3cncnc3)c2)c2cc(-c3cn4nc(OC)sc4n3)oc2c1` [Example 57] the EC50 was 1.8 nM. In the case of `COc1cc(OCc2ccc3c(c2)N(C(=O)c2cc(C)cc(C(F)(F)F)c2)CC3)c2cc(-c3cn4nc(OC)sc4n3)oc2c1` [Example 111], the EC50 is reported as 6 nM. Compound `COc1cc(OC)cc(C(=O)Nc2cccc(COc3cc(OC)cc4oc(-c5cn6nc(OC)sc6n5)cc34)c2)c1` [Example 137] has an EC50 of 3.4 nM. `COc1cc(OCc2cccc3c2CCN3C(=O)c2csc(C(F)(F)F)n2)c2cc(-c3cn4nc(OC)sc4n3)oc2c1` [Example 118] showed an EC50 of 16 nM. Work on `COc1cc(OCc2cccc(NC(=O)c3ccc(C)nc3Cl)c2)c2cc(-c3cn4nc(OC)sc4n3)oc2c1` [Example 64] yielded an EC50 of 1.4 nM. `COc1cc(OCc2cccc(NC(=O)C3CCCCC3)c2)c2cc(-c3cn4nc(OC)sc4n3)oc2c1` [Example 150] gave an EC50 of 2.3 nM. `COc1cc(OCc2cccc(NC(=O)c3cc(C(F)(F)F)ccc3C(F)(F)F)c2)c2cc(-c3cn4nc(OC)sc4n3)oc2c1` [Example 9] was tested, and the EC50 was 2 nM. Work on `COc1cc(OCc2cccc(NC(=O)c3cc(OC(F)F)cc(C(F)(F)F)c3)c2)c2cc(-c3cn4nc(OC)sc4n3)oc2c1` [Example 74] yielded an EC50 of 0.95 nM. `COc1cc(OCc2cccc(NC(=O)c3ccnnc3)c2)c2cc(-c3cn4nc(OC)sc4n3)oc2c1` [Example 69] was tested, and the EC50 was 12 nM. With `COc1cc(Cl)cc(C(=O)Nc2cccc(COc3cc(OC)cc4oc(-c5cn6nc(OC)sc6n5)cc34)c2)c1` [Example 63] the EC50 was 1.4 nM. With `COc1cc(OCc2cccc(NC(=O)c3cc(F)ccc3C)c2)c2cc(-c3cn4nc(OC)sc4n3)oc2c1` [Example 75] the EC50 was 1.7 nM. Compound `COc1cc(OCc2cccc(NC(=O)c3cc(F)cc(F)c3)c2)c2cc(-c3cn4nc(OC)sc4n3)oc2c1` [Example 159] has an EC50 of 1.6 nM. Work on `COc1cc(OCc2cccc3c2CCN3C(=O)c2cncnc2)c2cc(-c3cn4nc(OC)sc4n3)oc2c1` [Example 126] yielded an EC50 of 260 nM. Compound `COc1cc(OCc2cccc(NC(=O)c3cccc(N(C)C)c3)c2)c2cc(-c3cn4nc(OC)sc4n3)oc2c1` [Example 144] has an EC50 of 3.8 nM. `COc1cc(OCc2cccc(NC(=O)c3c(Cl)cccc3Cl)c2)c2cc(-c3cn4nc(OC)sc4n3)oc2c1` [Example 12] showed an EC50 of 1.5 nM. Work on `COc1cc(OCc2cccc(N(C)C(=O)c3cncnc3)c2)c2cc(-c3cn4nc(OC)sc4n3)oc2c1` [Example 92] yielded an EC50 of 3.5 nM.
